Results reported in patent US20220313600A1, “FORMULATIONS OF PSMA IMAGING AGENTS” (Clarity Pharmaceuticals Limited, priority 2019, published 2022).

Assays:
[1] = Stability of the compound of Formula (I) formulated as an aqueous solution; assay type: physicochemical
Text: One approach to overcome the observed instability may be to add one or more components that are antioxidants and/or stabilizing agents to the formulation, however the inclusion of further components to a formulation introduces potential reactivity issues between the compound of Formula (I) and these added components. For instance, the addition of an antioxidant may in fact react with the compound of Formula (I) thus potentially changing the structure and function of the compound, which is undesirable.

[2] = Degradation of the compound of Formula (I) when the radiolabelling mixture is mixed at raised temperature; assay type: physicochemical; conditions: temperatures higher than about 40° C., for example 60° C.; mixture with Cu radioisotope and acetate buffer
Text: The solution comprising the mixture of the Cu radioisotope, the compound of Formula (I) and the acetate buffer is then allowed to mix for a time and at a particular temperature in order to allow for complexation of the compound of Formula (I) with the Cu radioisotope. The solution may be mixed using an appropriate apparatus. For example, given the small volumes used, an Eppendorf tube may be an appropriate vessel, such that an Eppendorf Thermomixer may be used to both mix and if required, heat the solution. In an embodiment, the solution is mixed at room temperature. In an embodiment, the solution is mixed at about 40° C. […] While a lower temperature of about 21° C., i.e. room temperature, may be used for mixing, the complexation reaction may not be complete at 5 minutes but is completed by about 15 minutes. […] In an embodiment, the solution is mixed at about 40° C. for about 5 minutes. In an embodiment, the solution is mixed at about 40° C. for about 10 minutes. In another embodiment, the solution is mixed at about 40° C. for about 15 minutes. In another embodiment, the solution is mixed at about 21° C. for about 10 minutes. In another embodiment, the solution is mixed at about 21° C. for about 15 minutes.

In the case of `O=C(O)CCC(NC(=O)NC(CCCCNC(=O)CCCCCCCNC(=O)C(Cc1ccccc1)NC(=O)C(Cc1ccccc1)NC(=O)CCCC(=O)NC12CNCCNCC(NC(=O)CCCC(=O)NC(Cc3ccccc3)C(=O)NC(Cc3ccccc3)C(=O)NCCCCCCCC(=O)NCCCCC(NC(=O)NC(CCC(=O)O)C(=O)O)C(=O)O)(CNCCNC1)CNCCNC2)C(=O)O)C(=O)O` (stereo not drawn) [Formula (I), Sar-bisPSMA], the “stability of the compound in aqueous solution” value ([1]; formulated as an aqueous solution, no buffer or stabilizing agent) was “relatively unstable and prone to oxidation and degradation”, the “stability of the compound in a formulation containing a buffer” value ([1]; formulation containing a buffer, in the absence of a stabilizing agent) was “requisite stability” and the “degradation of the compound on heating” value [2] was “some degradation”.
